This passage reports Ki results from patent publication US12398097B2, “WDR5-MYC inhibitors” (Vanderbilt University, priority 2019, dated 2025).

This assay addresses WDR5 (Homo sapiens, UniProt P61964). Nature of the assay: Competition-based fluorescence polarization anisotropy assay. The note with it: binding to WDR5; displacement of FITC-labeled small molecule probe (analogous to Example J2 or HCH-25) or peptide probe FITC-AHx-SEEEIDVVSV; pH 6.0; Ki converted from IC50. In a few lines: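 Competition fluorescence polarization anisotropy binding to WDR5 using a FITC-labeled peptide probe or a fluorescently labeled small-molecule probe. Buffer: 200 mM phosphate, 300 mM NaCl, 0.5 mM TCEP, 0.1% Chaps, pH 6.0. Displacement data were converted to Ki.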
As for `COCCNC(=O)c1cc(C2CC2)cc(NS(=O)(=O)c2cc(Br)cc(Cl)c2O)c1O` [Example J96, 3-((5-Bromo-3-chloro-2-hydroxyphenyl)sulfonamido)-5-cyclopropyl-2-hydroxy-N-(2-methoxyethyl)benzamide], affinity was put at a Ki of 610 nM.

For `CCc1cc(Br)cc(S(=O)(=O)Nc2cc(C3(C#N)CCC3)cc(C(=O)NC)c2O)c1O` [Example J213, 3-((5-Bromo-3-ethyl-2-hydroxyphenyl)sulfonamido)-5-(1-cyanocyclobutyl)-2-hydroxy-N-methylbenzamide], the inhibitory constant (Ki) was determined as 12200 nM. This Ki is about 20-fold higher than that of the compound before.

`CNC(=O)c1cc(Cl)cc(NS(=O)(=O)c2cc(Br)cc(Cl)c2O)c1O` [Example J40, 3-((5-Bromo-3-chloro-2-hydroxyphenyl)sulfonamido)-5-chloro-2-hydroxy-N-methylbenzamide] had an inhibitory constant (Ki) of 240 nM.

`CS(=O)(=O)c1cc(Cl)cc(NS(=O)(=O)c2cc(Br)cc(Cl)c2O)c1` [Example S8, 5-Bromo-3-chloro-N-(3-chloro-5-(methylsulfonyl)phenyl)-2-hydroxybenzenesulfonamide] yielded a Ki of 170 nM.

In turn, `CC(C)[C@H](C)Nc1ccc(Br)cc1S(=O)(=O)Nc1cc(C2CC2)cc(C(=O)O)c1O` [Example J76, (S)-3-((5-Bromo-2-((3-methylbutan-2-yl)amino)phenyl)sulfonamido)-5-cyclopropyl-2-hydroxybenzoic acid] showed a Ki of 3240 nM.

The compound `CS(=O)(=O)c1cc(Cl)cc(NS(=O)(=O)c2cc(Br)cc(Cl)c2O)c1F` [Example S54, 5-Bromo-3-chloro-N-(5-chloro-2-fluoro-3-(methylsulfonyl)phenyl)-2-hydroxybenzenesulfonamide] gave a Ki of 800 nM.

Regarding `O=C(NCCO)c1cc(F)cc(NS(=O)(=O)c2cc(Br)ccc2O)c1O` [Example J111, 3-((5-Bromo-2-hydroxyphenyl)sulfonamido)-5-fluoro-2-hydroxy-N-(2-hydroxyethyl)benzamide], the Ki stood at 2930 nM.

Consider `O=C(N[C@H]1CCOC1)c1cc(Cl)cc(NS(=O)(=O)c2cc(Br)ccc2O)c1O` [Example J22, (S)-3-((5-Bromo-2-hydroxyphenyl)sulfonamido)-5-chloro-2-hydroxy-N-(tetrahydrofuran-3-yl)benzamide], for which the inhibitory constant (Ki) is 470 nM.

Regarding `COCCCNC(=O)c1cc(C2CC2)cc(NS(=O)(=O)c2cc(Br)ccc2O)c1O` [Example J88, 3-((5-Bromo-2-hydroxyphenyl)sulfonamido)-5-cyclopropyl-2-hydroxy-N-(3-methoxypropyl)benzamide], the Ki was found to be 600 nM.

Consider `CNC(=O)c1c(O)c(NS(=O)(=O)c2cc(Br)cc(F)c2O)cc(C2CC2)c1F` [Example J150, 3-((5-Bromo-3-fluoro-2-hydroxyphenyl)sulfonamido)-5-cyclopropyl-6-fluoro-2-hydroxy-N-methylbenzamide], for which the Ki is 920 nM. This Ki lies about 1.5-fold higher than the previous one.

Compound `O=C(O)c1cc(Br)cc(S(=O)(=O)Nc2cc(Cl)cc([N+](=O)[O-])c2O)c1O` [NE12] displayed an inhibition constant Ki of 610 nM.

In turn, `COc1ccc(Br)cc1S(=O)(=O)Nc1cc(Cl)cc(C(=O)N2CC(S(C)(=O)=O)C2)c1O` [Example J64, 5-Bromo-N-(5-chloro-2-hydroxy-3-(3-(methylsulfonyl)azetidine-1-carbonyl)phenyl)-2-methoxybenzenesulfonamide] displayed a Ki of 4150 nM. This Ki is about 6.8-fold higher than that of the compound before.

In turn, `NC(=O)c1cc(C2CC2)cc(NS(=O)(=O)c2cc(Br)cc([N+](=O)[O-])c2O)c1O` [Example J104, 3-((5-Bromo-2-hydroxy-3-nitrophenyl)sulfonamido)-5-cyclopropyl-2-hydroxybenzamide] yielded a Ki of 610 nM.

Turning to `O=C(NCC1CCCO1)c1cc(OC(F)(F)F)cc(NS(=O)(=O)c2cc(Cl)ccc2O)c1O` (centres unmarked) [Example J178, 3-((5-Chloro-2-hydroxyphenyl)sulfonamido)-2-hydroxy-N-((tetrahydrofuran-2-yl)methyl)-5-(trifluoromethoxy)benzamide], the Ki is 700 nM.

For `CS(=O)(=O)c1cc(S(F)(F)(F)(F)F)cc(NS(=O)(=O)c2cc(Br)ccc2O)c1O` [Example S19, 5-Bromo-2-hydroxy-N-(2-hydroxy-3-(methylsulfonyl)-5-(pentafluoro-λ^6-sulfaneyl)phenyl)benzenesulfonamide], the Ki stood at 100 nM.

`CC(C)N(CCS(=O)(=O)c1cc(Cl)cc(NS(=O)(=O)c2cc(Br)cc(Cl)c2O)c1)C(C)C` [Example S37, 5-Bromo-3-chloro-N-(3-chloro-5-((2-(diisopropylamino)ethyl)sulfonyl)phenyl)-2-hydroxybenzenesulfonamide] had a Ki of 400 nM.

For `O=C(NC1COC1)c1cc(C2CC2)cc(NS(=O)(=O)c2cc(Br)cc(Cl)c2O)c1F` [Example J159, 3-((5-Bromo-3-chloro-2-hydroxyphenyl)sulfonamido)-5-cyclopropyl-2-fluoro-N-(oxetan-3-yl)benzamide], the Ki came out at 610 nM.

As for `CC(C)(C)c1cc(NS(=O)(=O)c2cc(Br)ccc2O)c(O)c(C(=O)O)c1` [Example J201, 3-((5-Bromo-2-hydroxyphenyl)sulfonamido)-5-(tert-butyl)-2-hydroxybenzoic acid], the affinity corresponds to a Ki of 700 nM.

Regarding `CNS(=O)(=O)c1cc(Cl)cc(NS(=O)(=O)c2cc(Br)ccc2O)c1O` [Example S29, 5-bromo-N-(5-chloro-2-hydroxy-3-(N-methylsulfamoyl)phenyl)-2-hydroxybenzenesulfonamide], affinity was put at a Ki of 15500 nM.

`Cc1c(C2CC2)cc(NS(=O)(=O)c2cc(Br)ccc2O)c(O)c1C(=O)O` [Example J185, 3-((5-Bromo-2-hydroxyphenyl)sulfonamido)-5-cyclopropyl-2-hydroxy-6-methylbenzoic acid] registered a Ki of 580 nM.

Compound `CS(=O)(=O)c1cc(NS(=O)(=O)c2cc(Br)ccc2O)cc(C2(C#N)CCC2)c1` [Example S73, 5-bromo-N-(3-(1-cyanocyclobutyl)-5-(methylsulfonyl)phenyl)-2-hydroxybenzenesulfonamide] showed a Ki of 1030 nM.

For `O=C(NC1COC1)c1cc(OC(F)(F)F)cc(NS(=O)(=O)c2cc(Br)cc(Cl)c2O)c1O` [HCH-54, 3-((5-Bromo-3-chloro-2-hydroxyphenyl)sulfonamido)-2-hydroxy-N-(oxetan-3-yl)-5-(trifluoromethoxy)benzamide], the affinity, expressed as Ki, was 140 nM.

Regarding `COc1ccc(Br)cc1S(=O)(=O)Nc1cc(Cl)cc(C(=O)N2CCOCC2)c1O` [Example J48, 5-Bromo-N-(5-chloro-2-hydroxy-3-(morpholine-4-carbonyl)phenyl)-2-methoxybenzenesulfonamide], the affinity, expressed as Ki, was 6190 nM.

The compound `O=C(NC1CC(F)(F)C1)c1cc(Cl)cc(NS(=O)(=O)c2cc(Br)ccc2O)c1O` [Example J38, 3-((5-Bromo-2-hydroxyphenyl)sulfonamido)-5-chloro-N-(3,3-difluorocyclobutyl)-2-hydroxybenzamide] displayed a Ki of 400 nM.

In turn, `N#CC1(c2cc(NS(=O)(=O)c3cc(Br)cc(Cl)c3O)c(O)c(C(N)=O)c2)CCCCC1` [Example J235, 3-((5-Bromo-3-chloro-2-hydroxyphenyl)sulfonamido)-5-(1-cyanocyclohexyl)-2-hydroxybenzamide] showed a Ki of 80 nM.

On to `O=C(NCCCO)c1cc(Cl)cc(NS(=O)(=O)c2cc(Br)ccc2O)c1O` [Example J17, 3-((5-Bromo-2-hydroxyphenyl)sulfonamido)-5-chloro-2-hydroxy-N-(3-hydroxypropyl)benzamide], for which affinity was put at a Ki of 2690 nM.

On to `O=C(O)c1cc(S(F)(F)(F)(F)F)cc(NS(=O)(=O)c2cc(Br)cc(Cl)c2O)c1O` [Example S64, 3-((5-Bromo-3-chloro-2-hydroxyphenyl)sulfonamido)-2-hydroxy-5-(pentafluoro-λ^6-sulfaneyl)benzoic acid], for which the Ki came out at 20 nM. This Ki lies about 130-fold lower than the previous one.

`N#CC1(c2cc(NS(=O)(=O)c3cc(Br)ccc3O)c(O)c(C(=O)NCCO)c2)CCC1` [Example J228, 3-((5-Bromo-2-hydroxyphenyl)sulfonamido)-5-(1-cyanocyclobutyl)-2-hydroxy-N-(2-hydroxyethyl)benzamide] registered an inhibitory constant (Ki) of 370 nM.

With `COCCCNC(=O)c1cc(Cl)cc(NS(=O)(=O)c2cc(Br)ccc2OC)c1O` [Example J51, 3-((5-Bromo-2-methoxyphenyl)sulfonamido)-5-chloro-2-hydroxy-N-(3-methoxypropyl)benzamide], the Ki worked out at 2450 nM.

Compound `CNC(=O)c1cc(C2CC2)cc(NS(=O)(=O)c2cc(Br)ccc2O)c1O` [Example J81, 3-((5-Bromo-2-hydroxyphenyl)sulfonamido)-5-cyclopropyl-2-hydroxy-N-methylbenzamide] displayed an inhibitory constant (Ki) of 750 nM.

`COc1cc(Cl)c(Br)cc1S(=O)(=O)Nc1cc(Cl)cc(C(=O)O)c1O` [Example J7, 3-((5-Bromo-4-chloro-2-methoxyphenyl)sulfonamido)-5-chloro-2-hydroxybenzoic acid]: the affinity, expressed as Ki, was 3750 nM.

For `CS(=O)(=O)c1cc(NS(=O)(=O)c2cc(Br)cc(Cl)c2O)cc(S(F)(F)(F)(F)F)c1` [Example S14, 5-Bromo-3-chloro-2-hydroxy-N-(3-(methylsulfonyl)-5-(pentafluoro-λ^6-sulfaneyl)phenyl)benzenesulfonamide], affinity was put at a Ki of 30 nM.

`O=C(O)c1cc(OC(F)(F)F)cc(NS(=O)(=O)c2cc(Br)ccc2O)c1O` [Example J160, 3-((5-Bromo-2-hydroxyphenyl)sulfonamido)-2-hydroxy-5-(trifluoromethoxy)benzoic acid] registered a Ki of 60 nM. This Ki is about 2-fold higher than that of the compound before.

As to `O=C(O)c1cc(Cl)cc(NS(=O)(=O)c2cc(Cl)c(F)cc2O)c1O` [Example J10, 5-Chloro-3-((5-chloro-4-fluoro-2-hydroxyphenyl)sulfonamido)-2-hydroxybenzoic acid], the inhibitory constant (Ki) was 21900 nM.

The compound `O=C(NCCCO)c1cc(C2CC2)cc(NS(=O)(=O)c2cc(Br)ccc2O)c1O` [Example J91, 3-((5-Bromo-2-hydroxyphenyl)sulfonamido)-5-cyclopropyl-2-hydroxy-N-(3-hydroxypropyl)benzamide] yielded a Ki of 940 nM.
